Reference: patent US20240059691A1 (KALVISTA PHARMACEUTICALS LIMITED, priority 2020, published 2024)

biological target: Human Factor XIIa (Homo sapiens (Human), UniProt P00748); assay: Determination of FXIIa inhibition (fluorogenic substrate H-DPro-Phe-Arg-AFC, IC50 assay); format: biochemical; conditions: substrate H-DPro-Phe-Arg-AFC at Km, 25° C.; class scale A-G
Experimental: Determination of FXIIa Inhibition
In vitro inhibition of Factor XIIa was determined using an IC50 assay based on standard literature methods (see e.g Baeriswyl et al., ACS Chem. Biol., 2015, 10 (8) 1861; Bouckaert et al., European Journal of Medicinal Chemistry 110 (2016) 181). Human Factor XIIa (Enzyme Research Laboratories) was incubated at 25° C. with the fluorogenic substrate H-DPro-Phe-Arg-AFC (Peptide Protein Science) and various concentrations of the test compound. Protease activity was measured by monitoring the accumulation of liberated fluorescence from the substrate over 5 min at 25° C. The linear rate of fluorescence increase per minute was expressed as percentage (%) activity. The Km for the cleavage of the substrate by FXIIa was determined by standard transformation of the Michaelis-Menten equation. The compound inhibitor assays were performed at substrate Km concentration. IC50 values were calculated as the concentration of inhibitor giving 50% inhibition (IC50) of the uninhibited enzyme activity (100%).

Sequence of Human Factor XIIa (P00748 373-615): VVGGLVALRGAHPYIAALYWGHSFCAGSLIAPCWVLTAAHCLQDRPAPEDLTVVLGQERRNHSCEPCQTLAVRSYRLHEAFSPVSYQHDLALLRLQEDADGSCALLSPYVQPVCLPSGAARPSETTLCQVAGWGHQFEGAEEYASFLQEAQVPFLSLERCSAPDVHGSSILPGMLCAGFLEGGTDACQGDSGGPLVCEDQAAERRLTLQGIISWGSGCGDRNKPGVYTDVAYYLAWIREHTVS

IC50 | Compound
10 to 100 nM | Cc1cc(N2CCn3c(nnc3C(F)(F)F)C2C)ncc1CNc1ccnc2[nH]c(Cl)cc12 (racemic) [Example 1314, 2-Chloro-N-((4-methyl-6-(8-methyl-3-(trifluoromethyl)-5,6-dihydro-[1,2,4]triazolo[4,3-a]pyrazin-7(8H)-yl)pyridin-3-yl)methyl)-1H-pyrrolo[2,3-b]pyridin-4-amine]
100 to 300 nM | Nc1nccc2cc(NCc3ccc(OCC4CCn5ccnc5C4)nc3)ccc12 (single isomer, unassigned) [Example 1023, 6-N-({6-[(7R*)-5H,6H,7H,8H-imidazo[1,2-a]pyridin-7-ylmethoxy]pyridin-3-yl}methyl)isoquinoline-1,6-diamine]
100 to 300 nM | Nc1nccc2cc(NCc3ccc(OC[C@H]4CCn5ccnc5C4)nc3)ccc12 (single isomer, unassigned) [Example 1024, 6-N-({6-[(7S*)-5H,6H,7H,8H-imidazo[1,2-a]pyridin-4-yl}-ylmethyl)isoquinoline-1,6-diamine]
10000 to 40000 nM | Cc1cc(N2CCn3c(nnc3C(F)(F)F)C2C)ncc1CNc1ccnc2[nH]c(Cl)cc12 (single isomer, unassigned) [Example 1315, (R*)-2-Chloro-N-((4-methyl-6-(8-methyl-3-(trifluoromethyl)-5,6-dihydro-[1,2,4]triazolo[4,3-a]pyrazin-7(8H)-yl)pyridin-3-yl)methyl)-1H-pyrrolo[2,3-b]pyridin-4-amine]
10 to 100 nM | Cc1cc(N2CCn3c(nnc3C(F)(F)F)C2C)ncc1CNc1ccnc2[nH]c(Cl)cc12 (single isomer, unassigned) [Example 1316, (S*)-2-Chloro-N-((4-methyl-6-(8-methyl-3-(trifluoromethyl)-5,6-dihydro-[1,2,4]triazolo[4,3-a]pyrazin-7(8H)-yl)pyridin-3-yl)methyl)-1H-pyrrolo[2,3-b]pyridin-4-amine]
10000 to 40000 nM | CCC1c2nnc(C(F)(F)F)n2CCN1c1cc(C)c(CNc2cccc3c(N)nccc23)cn1 (single isomer, unassigned) [Example 1320, (R*)-N5-((6-(8-ethyl-3-(trifluoromethyl)-5,6-dihydro-[1,2,4]triazolo[4,3-a]pyrazin-7(8H)-yl)-4-methylpyridin-3-yl)methyl)isoquinoline-1,5-diamine]
100 to 300 nM | CCC1c2nnc(C(F)(F)F)n2CCN1c1cc(C)c(CNc2cccc3c(N)nccc23)cn1 (single isomer, unassigned) [Example 1321, (S*)-N5-((6-(8-ethyl-3-(trifluoromethyl)-5,6-dihydro-[1,2,4]triazolo[4,3-a]pyrazin-7(8H)-yl)-4-methylpyridin-3-yl)methyl)isoquinoline-1,5-diamine]
3000 to 10000 nM | COCC1c2nnc(C(F)(F)F)n2CCN1c1cc(C)c(CNc2cccc3c(N)nccc23)cn1 (single isomer, unassigned) [Example 1343, (S*)-N5-((6-(8-(methoxymethyl)-3-(trifluoromethyl)-5,6-dihydro-[1,2,4]triazolo[4,3-a]pyrazin-7(8H)-yl)-4-methylpyridin-3-yl)methyl)isoquinoline-1,5-diamine]
10 to 100 nM | COCC1c2nnc(C(F)(F)F)n2CCN1c1cc(C)c(CNc2cccc3c(N)nccc23)cn1 (single isomer, unassigned) [Example 1344, (R*)-N5-((6-(8-(methoxymethyl)-3-(trifluoromethyl)-5,6-dihydro-[1,2,4]triazolo[4,3-a]pyrazin-7(8H)-yl)-4-methylpyridin-3-yl)methyl)isoquinoline-1,5-diamine]
10 to 100 nM | Cc1cc(N2CCn3c(nnc3C(F)(F)F)C2C)cnc1CNc1cccc2c(N)nccc12 (single isomer, unassigned) [Example 1345, (R*)-N5-((3-methyl-5-(8-methyl-3-(trifluoromethyl)-5,6-dihydro-[1,2,4]triazolo[4,3-a]pyrazin-7(8H)-yl)pyridin-2-yl)methyl)isoquinoline-1,5-diamine]
1000 to 3000 nM | Cc1cc(N2CCn3c(nnc3C(F)(F)F)C2C)cnc1CNc1cccc2c(N)nccc12 (single isomer, unassigned) [Example 1346, (S*)-N5-((3-methyl-5-(8-methyl-3-(trifluoromethyl)-5,6-dihydro-[1,2,4]triazolo[4,3-a]pyrazin-7(8H)-yl)pyridin-2-yl)methyl)isoquinoline-1,5-diamine]
100 to 300 nM | Nc1nccc2cc(NCc3ccnc(OC[C@@H]4CCn5ccnc5C4)c3)ccc12 (single isomer, unassigned) [Example 4412, 6-N-({2-[(7R*)-5H,6H,7H,8H-imidazo[1,2-a]pyridin-7-ylmethoxy]pyridin-4-yl}methyl)isoquinoline-1,6-diamine]
300 to 1000 nM | CN1CCN(Cc2ccc(CNc3ccc4c(N)nccc4c3)cc2)CC1 [Example 1007, 6-N-({4-[(4-methylpiperazin-1-yl)methyl]phenyl}methyl)isoquinoline-1,6-diamine]
3000 to 10000 nM | Nc1nccc2cc(NCc3ccc(OCc4ccncc4)nc3)ccc12 [Example 1014, 6-N-{[6-(pyridin-4-ylmethoxy)pyridin-3-yl]methyl}isoquinoline-1,6-diamine]
300 to 1000 nM | CN1CCC(COc2ccc(CNc3ccc4c(N)nccc4c3)cn2)CC1=O (centres unmarked) [Example 1015, 4-{[(5-{[(1-aminoisoquinolin-6-yl)amino]methyl}pyridin-2-yl)oxy]methyl}-1-methylpiperidin-2-one]
100 to 300 nM | Nc1nccc2cc(NCc3ccc(OCC4CCNCC4)nc3)ccc12 [Example 1016, 6-N-{[6-(piperidin-4-ylmethoxy)pyridin-3-yl]methyl}isoquinoline-1,6-diamine]
300 to 1000 nM | CC(C)(O)CN1CCC(COc2ccc(CNc3ccc4c(N)nccc4c3)cn2)CC1 [Example 1017, 1-(4-(((5-(((1-aminoisoquinolin-6-yl)amino)methyl)pyridin-2-yl)oxy)methyl)piperidin-1-yl)-2-methylpropan-2-ol]
300 to 1000 nM | CN1CCC(COc2ccc(CCc3ccc4c(N)nccc4c3)cn2)CC1 [Example 1018, 6-(2-(6-((1-methylpiperidin-4-yl)methoxy)pyridin-3-yl)ethyl)isoquinolin-1-amine]
3000 to 10000 nM | CN1CCC(COc2ccc(CCc3cccc4c(N)nccc34)cn2)CC1 [Example 1019, 5-(2-{6-[(1-methylpiperidin-4-yl)methoxy]pyridin-3-yl}ethyl)isoquinolin-1-amine]
1000 to 3000 nM | CN1CCC(COc2ccc(CNc3cnc4[nH]cc(Cl)c4c3)cn2)CC1 [Example 1020, 3-chloro-N-((6-((1-methylpiperidin-4-yl)methoxy)pyridin-3-yl)methyl)-1H-pyrrolo[2,3-b]pyridin-5-amine]
10000 to 40000 nM | CN1CCC(COc2ccc(CNc3ccc4c(N)ncnc4c3)cn2)CC1 [Example 1021, N7-((6-((1-methylpiperidin-4-yl)methoxy)pyridin-3-yl)methyl)quinazoline-4,7-diamine]
10000 to 40000 nM | CN1CCC(COc2ccc(CNc3cccc4c(N)ncnc34)cn2)CC1 [Example 1022, N8-[[6-[(1-methyl-4-piperidyl)methoxy]-3-pyridyl]methyl]quinazoline-4,8-diamine]
300 to 1000 nM | Cn1ccnc1CCCOc1ccc(CNc2ccc3c(N)nccc3c2)cn1 [Example 1025, 6-N-({6-[3-(1-methylimidazol-2-yl)propoxy]pyridin-3-yl}methyl)isoquinoline-1,6-diamine]
